Measurements from the NIST ThermoML archive (doi:10.1016/j.jct.2011.11.025).
Numbers after ± are expanded uncertainties.

Tests used:
[1] = activity coefficient (dimensionless); of the first substance listed, at infinite dilution; xn = mol fraction of the nth substance listed; conditions: Liquid, Chromatography, x1 = 0
[2] = 101.33 kPa, Liquid, Vibrating tube method

| SMILES | activity coefficient ([1]; 318.15 K) | activity coefficient ([1]; 328.15 K) | activity coefficient ([1]; 338.15 K) | activity coefficient ([1]; 348.15 K) | activity coefficient ([1]; 358.15 K) | activity coefficient ([1]; 368.15 K) | mass density ([2]; 318.15 K) [kg/m3] | mass density ([2]; 328.15 K) [kg/m3] | mass density ([2]; 338.15 K) [kg/m3] | mass density ([2]; 348.15 K) [kg/m3] | mass density ([2]; 358.15 K) [kg/m3] | mass density ([2]; 368.15 K) [kg/m3] |
| --- | --- | --- | --- | --- | --- | --- | --- | --- | --- | --- | --- | --- |
| CC(C)OC(C)C [diisopropyl ether] + CCCCCCn1cc[n+](C)c1.N#C[B-](C#N)(C#N)C#N | 3.68 ± 0.17 | 3.71 ± 0.17 | 3.75 ± 0.17 | 3.8 ± 0.17 | 3.82 ± 0.17 | 3.87 ± 0.18 |  |  |  |  |  |  |
| CCCCCCn1cc[n+](C)c1.N#C[B-](C#N)(C#N)C#N [1-hexyl-3-methylimidazolium tetracyanoborate] |  |  |  |  |  |  | 976.11 ± 0.23 | 969.06 ± 0.23 | 962.08 ± 0.23 | 955.16 ± 0.23 | 948.32 ± 0.23 | 941.2 ± 0.23 |
| CCOC(C)=O [ethyl acetate] + CCCCCCn1cc[n+](C)c1.N#C[B-](C#N)(C#N)C#N | 0.664 ± 0.03 | 0.684 ± 0.03 | 0.701 ± 0.029 | 0.715 ± 0.029 | 0.733 ± 0.029 | 0.751 ± 0.029 |  |  |  |  |  |  |
| CCc1ccccc1 [ethylbenzene] + CCCCCCn1cc[n+](C)c1.N#C[B-](C#N)(C#N)C#N | 1.39 ± 0.05 | 1.41 ± 0.05 | 1.43 ± 0.05 | 1.45 ± 0.05 | 1.47 ± 0.06 | 1.49 ± 0.06 |  |  |  |  |  |  |
| CCCCCCCC [octane] + CCCCCCn1cc[n+](C)c1.N#C[B-](C#N)(C#N)C#N | 22.8 ± 1.1 | 21.1 ± 1 | 19.7 ± 0.9 | 18.6 ± 0.9 | 17.4 ± 0.8 | 16.6 ± 0.8 |  |  |  |  |  |  |
| CC1CCCCC1 [methylcyclohexane] + CCCCCCn1cc[n+](C)c1.N#C[B-](C#N)(C#N)C#N | 8.87 ± 0.41 | 8.35 ± 0.38 | 7.87 ± 0.36 | 7.58 ± 0.35 | 7.24 ± 0.33 | 7 ± 0.32 |  |  |  |  |  |  |
| CCOCC [diethyl ether] + CCCCCCn1cc[n+](C)c1.N#C[B-](C#N)(C#N)C#N | 1.59 ± 0.06 | 1.62 ± 0.07 | 1.64 ± 0.07 | 1.68 ± 0.07 | 1.71 ± 0.07 | 1.76 ± 0.07 |  |  |  |  |  |  |
| CCO [ethanol] + CCCCCCn1cc[n+](C)c1.N#C[B-](C#N)(C#N)C#N | 1.05 ± 0.03 | 0.978 ± 0.025 | 0.912 ± 0.026 | 0.855 ± 0.027 | 0.807 ± 0.028 | 0.761 ± 0.029 |  |  |  |  |  |  |
| CC(C)(C)O [2-methylpropan-2-ol] + CCCCCCn1cc[n+](C)c1.N#C[B-](C#N)(C#N)C#N | 1.2 ± 0.04 | 1.11 ± 0.03 | 1.04 ± 0.03 | 0.988 ± 0.025 | 0.951 ± 0.026 | 0.914 ± 0.026 |  |  |  |  |  |  |
| CCCC=O [butanal] + CCCCCCn1cc[n+](C)c1.N#C[B-](C#N)(C#N)C#N | 0.512 ± 0.032 | 0.523 ± 0.032 | 0.539 ± 0.032 | 0.554 ± 0.032 | 0.564 ± 0.032 | 0.579 ± 0.031 |  |  |  |  |  |  |
| CCCCCCC [heptane] + CCCCCCn1cc[n+](C)c1.N#C[B-](C#N)(C#N)C#N | 16.5 ± 0.8 | 15.4 ± 0.7 | 14.5 ± 0.7 | 13.7 ± 0.6 | 13 ± 0.6 | 12.4 ± 0.6 |  |  |  |  |  |  |
| CCC(C)CC [3-methylpentane] + CCCCCCn1cc[n+](C)c1.N#C[B-](C#N)(C#N)C#N | 10.5 ± 0.5 | 9.96 ± 0.46 | 9.5 ± 0.44 | 9.15 ± 0.42 | 8.81 ± 0.4 | 8.6 ± 0.39 |  |  |  |  |  |  |
| CCC[N+](=O)[O-] [1-nitropropane] + CCCCCCn1cc[n+](C)c1.N#C[B-](C#N)(C#N)C#N |  | 0.497 ± 0.033 | 0.503 ± 0.032 | 0.508 ± 0.032 | 0.511 ± 0.032 | 0.518 ± 0.032 |  |  |  |  |  |  |
